From ChEMBL document CHEMBL1201862, “PubChem BioAssay data set” (2004)
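Protocol summary: plate cells (96-well), add compound at 5 concentrations, incubate 48 h, interpolate endpoints linearly. Here, GI50 denotes the concentration required for 50% inhibition of growth.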 Calls of active or inactive are those of the source. No stated cut-off is given here; in the data, active = GI50 up to about 1.1 µM and inactive = higher.

Tests used:
Assay in all cases: DTP human tumour cell line panel, 48 h
[1] = tested on: MOLT-4
[2] = tested on: EKVX
[3] = tested on: HCT-15
[4] = tested on: OVCAR-3
[5] = tested on: BT-549
[6] = tested on: SK-OV-3
[7] = tested on: RPMI-8226
[8] = tested on: A549
[9] = tested on: UACC-257
[10] = tested on: UO-31
[11] = tested on: SF-539
[12] = tested on: Hs-578T
[13] = tested on: SR
[14] = tested on: HL-60
[15] = tested on: PC-3
[16] = tested on: IGROV-1
[17] = tested on: SF-268
[18] = tested on: HOP-62
[19] = tested on: T47D
[20] = tested on: OVCAR-8
[21] = tested on: NCI-H460
[22] = tested on: TK-10
[23] = tested on: U-251
[24] = tested on: CAKI-1
[25] = tested on: SNB-75
[26] = tested on: 786-0
[27] = tested on: Malme-3M
[28] = tested on: OVCAR-5
[29] = tested on: MCF7
[30] = tested on: SNB-19
[31] = tested on: RXF 393
[32] = tested on: MDA-MB-231
[33] = tested on: COLO 205
[34] = tested on: HCT-116
[35] = tested on: SN12C
[36] = tested on: ACHN
[37] = tested on: HOP-92
[38] = tested on: SK-MEL-28
[39] = tested on: KM12
[40] = tested on: NCI-H522
[41] = tested on: K562
[42] = tested on: HCC 2998
[43] = tested on: CCRF-CEM
[44] = tested on: A498
[45] = tested on: NCI-H23
[46] = tested on: LOX IMVI
[47] = tested on: SK-MEL-2
[48] = tested on: DU-145
[49] = tested on: SW-620
[50] = tested on: UACC-62
[51] = tested on: MDA-MB-435
[52] = tested on: NCI-H226
[53] = tested on: M14
[54] = tested on: NCI/ADR-RES
[55] = tested on: SK-MEL-5
[56] = tested on: OVCAR-4
[57] = tested on: MDA-N
[58] = tested on: SF-295
[59] = tested on: HT-29

In the case of `CC(=O)O[C@H]1C#C/C=C\C#CC[C@@H]2C(=O)N(C(=O)OC(C)(C)C)[C@@H]12`, the GI50 [1] is reported as 0.199 µM (active), the GI50 [2] is reported as 85.7 µM (inactive) and the GI50 [3] is reported as 13.6 µM. For the same molecule, the GI50 [4] was 41.1 µM (inactive), the GI50 [5] was 33.5 µM (inactive) and the GI50 [6] was 62.4 µM (inactive). The GI50 [7] was 16.2 µM (inactive), the GI50 [8] was 16.6 µM (inactive) and the GI50 [9] was 28.4 µM (inactive). The GI50 [10] was 2.91 µM (inactive), the GI50 [11] was 1.67 µM (inactive) and the GI50 [12] was 39.6 µM (inactive). The GI50 [13] was 24 µM (inactive), the GI50 [14] was 2.45 µM (inactive) and the GI50 [15] was > 67.3 µM (inactive). For the same molecule, the GI50 [16] was 3.45 µM (inactive), the GI50 [17] was 16.8 µM (inactive) and the GI50 [18] was 7.11 µM (inactive). For the same molecule, the GI50 [19] was 32.7 µM (inactive), the GI50 [20] was 14.5 µM (inactive) and the GI50 [21] was 0.25 µM (active). For the same molecule, the GI50 [22] was > 55.1 µM (inactive), the GI50 [23] was 17.7 µM (inactive) and the GI50 [24] was 6.46 µM (inactive). For the same molecule, the GI50 [25] was 21.5 µM (inactive), the GI50 [26] was 9.93 µM (inactive) and the GI50 [27] was 7.87 µM (inactive). For the same molecule, the GI50 [28] was > 100 µM (inactive), the GI50 [29] was 2.34 µM (inactive) and the GI50 [30] was 18.7 µM (inactive). For the same molecule, the GI50 [31] was 15.4 µM (inactive), the GI50 [32] was 55.3 µM (inactive) and the GI50 [33] was 22.2 µM (inactive). For the same molecule, the GI50 [34] was 17.4 µM (inactive), the GI50 [35] was 18.8 µM (inactive) and the GI50 [36] was 4 µM (inactive). For the same molecule, the GI50 [37] was 26.9 µM (inactive), the GI50 [38] was 71.4 µM (inactive) and the GI50 [39] was 53.7 µM (inactive). For the same molecule, the GI50 [40] was 12.8 µM (inactive), the GI50 [41] was 25.7 µM (inactive) and the GI50 [42] was 19.5 µM (inactive). For the same molecule, the GI50 [43] was 1.52 µM (inactive), the GI50 [44] was 33.4 µM (inactive) and the GI50 [45] was 12.6 µM (inactive). The GI50 [46] was 13.1 µM (inactive), the GI50 [47] was 41.2 µM (inactive) and the GI50 [48] was 19.9 µM (inactive). For the same molecule, the GI50 [49] was 48.8 µM (inactive), the GI50 [50] was 14.8 µM (inactive) and the GI50 [51] was 71.6 µM (inactive). For the same molecule, the GI50 [52] was 24.3 µM (inactive), the GI50 [53] was 28.3 µM (inactive) and the GI50 [54] was 15.7 µM (inactive). The GI50 [55] was 18.2 µM (inactive), the GI50 [56] was > 100 µM (inactive) and the GI50 [57] was 39.4 µM (inactive). The GI50 [58] was 21.3 µM (inactive) and the GI50 [59] was 36.1 µM (inactive).
In the case of `Cn1c2ccc(F)cc2c2ccc3c(c21)C(=O)C=CC3=O`, the GI50 [1] is reported as 0.9 µM (active), the GI50 [2] is reported as 16 µM (inactive) and the GI50 [3] is reported as 13.7 µM. For the same molecule, the GI50 [4] was 7.21 µM (inactive), the GI50 [5] was 14 µM (inactive) and the GI50 [6] was 61 µM (inactive). For the same molecule, the GI50 [7] was 6.93 µM (inactive), the GI50 [8] was > 64.1 µM (inactive) and the GI50 [9] was 9.86 µM (inactive). The GI50 [10] was 7.52 µM (inactive), the GI50 [11] was 16.6 µM (inactive) and the GI50 [12] was 29.9 µM (inactive). The GI50 [13] was 1.56 µM (inactive), the GI50 [14] was 0.598 µM (active) and the GI50 [15] was 8.67 µM (inactive). The GI50 [16] was 14.6 µM (inactive), the GI50 [17] was 21 µM (inactive) and the GI50 [18] was > 66.5 µM (inactive). For the same molecule, the GI50 [19] was 2.77 µM (inactive), the GI50 [20] was 9.35 µM (inactive) and the GI50 [21] was > 57.3 µM (inactive). The GI50 [22] was 4.56 µM (inactive), the GI50 [23] was 14.3 µM (inactive) and the GI50 [24] was 4.23 µM (inactive). For the same molecule, the GI50 [25] was 33.3 µM (inactive), the GI50 [26] was 3.41 µM (inactive) and the GI50 [27] was 8.71 µM (inactive). The GI50 [28] was 43.6 µM (inactive), the GI50 [29] was 2.2 µM (inactive) and the GI50 [30] was 50.8 µM (inactive). For the same molecule, the GI50 [31] was 3.28 µM (inactive), the GI50 [32] was 4.09 µM (inactive) and the GI50 [33] was 7.08 µM (inactive). The GI50 [34] was 6.73 µM (inactive), the GI50 [35] was 15.4 µM (inactive) and the GI50 [36] was 5.85 µM (inactive). For the same molecule, the GI50 [37] was 6.22 µM (inactive), the GI50 [38] was 13.8 µM (inactive) and the GI50 [39] was 31.5 µM (inactive). For the same molecule, the GI50 [40] was 2.15 µM (inactive), the GI50 [41] was 1.63 µM (inactive) and the GI50 [42] was 26.9 µM (inactive). The GI50 [43] was 0.544 µM (active), the GI50 [44] was 55.7 µM (inactive) and the GI50 [45] was 13.8 µM (inactive). For the same molecule, the GI50 [46] was 6.17 µM (inactive), the GI50 [47] was 23.1 µM (inactive) and the GI50 [48] was 22 µM (inactive). For the same molecule, the GI50 [49] was 2.66 µM (inactive), the GI50 [50] was 20.5 µM (inactive) and the GI50 [51] was 16.4 µM (inactive). For the same molecule, the GI50 [52] was 20.3 µM (inactive), the GI50 [53] was 12.1 µM (inactive) and the GI50 [54] was 20.2 µM (inactive). The GI50 [55] was 16.9 µM (inactive), the GI50 [56] was 5.14 µM (inactive) and the GI50 [57] was 13.3 µM (inactive). For the same molecule, the GI50 [58] was 66.1 µM (inactive) and the GI50 [59] was 19.5 µM (inactive).
